According to PMC9610285 (Pharmaceutics, 2022):
Where “and” joins values, the source holds several entries; their conditions need not be identical. Identical values can stand only once. Like-named read-outs stand apart in the source and are kept apart here.

Conditions: 1 mg single oral dose, fasting; for AUC0-∞: not corrected by dose/weight
Description: The data used in this work were obtained from four bioequivalence clinical trials conducted at the Clinical Trials Unit of the Hospital Universitario de La Princesa (UECHUP) (EUDRA-CT IDs: 2012-004433-17, 2013-002159-14, 2014-001123-77 and 2021-000315-23). […] The reference formulation (R) in all cases was Azilect® 1 mg tablets (TEVA Pharmaceuticals Europe B.V.), which was compared against different test formulations (T), all of them 1 mg tablets, except in clinical trial 3, whose test formulation was orodispersible 1 mg. The four bioequivalence trials had two periods and two sequences (TR and RT). In the first period, the volunteers randomly were administered one of the two formulations and, in the following period, after a 7-day washout period, the opposite formulation. All of them were reviewed and approved by Independent Ethics Board (IEB) of the Hospital Universitario de La Princesa, and by the Spanish Drug Agency (AEMPS). In addition, they were performed in accordance with the guidelines of the International Conference on Harmonization for Good Clinical Practice (ICH-GCP), current Spanish legislation and the Revised Declaration of Helsinki. The pharmacogenetic study (SFC-FG-2020-1) was likewise approved by the IEB of Hospital Universitario de La Princesa (registry number 4176, 9 July 2020).
In each period, the drug was administered under fasting conditions, which were maintained until 5 h after drug administration. Each subject provided 20 or 21 blood samples (depending on the clinical trial) that were extracted by BD Vacutainer® vacuum system with EDTA K2 tubes for analysis at different times between 0 h (before receiving the drug) and up to 12 h after drug intake. […] A high-performance liquid chromatography coupled to triple quadrupole mass spectrometry (HPLC-MS/MS) analytical method was used. The latter was validated according to European regulations for bioequivalence assessment, with a lower limit of quantification (LLOQ) of 10 pg/mL and a calibration range of 10–10,000 pg/mL.
Pharmacokinetic parameters were calculated with WinNonlin Professional (Scientific Consulting, Inc., Cary, NC, USA) following a non-compartmental model. The area under the curve (AUC0-t), was obtained by the trapezoidal method. The extrapolation to infinity (AUC0-∞) was determined by the sum of two partial AUCs: AUCt-∞ calculated by the ratio Ct/k, where Ct is the last detectable concentration and k the elimination slope; plus AUC0-t. Cmax and tmax were directly obtained from the plasma time-concentration curves. t1/2 was calculated as Ln2/k. Plasma clearance adjusted for bioavailability (Cl/F) was calculated as dose/AUC. Finally, the volume of distribution adjusted for bioavailability (Vd/F) was calculated by dividing Cl/F by k.
The SPSS software (v23.0, SPSS Inc., Chicago, IL, USA) was used for statistical analyses. AUC0-∞, and Cmax were divided by the dose/weight (DW) ratio to correct sex-related variability related to a varying weight. For the same purpose, Vd/F and Cl/F were divided by weight. With the purpose of normalizing their distributions, all pharmacokinetic parameters were logarithmically transformed for statistical analysis. Initially, a univariate analysis was conducted of the demographic characteristics according to sex and ethnicity, and of the pharmacokinetic parameters or ADR incidence based on sex, biogeographical group (hereinafter, “ethnicity”), genotypes and phenotypes. T-tests were used for the comparison of means for variables with two categories and ANOVA tests for variables with three or more categories, followed by a Bonferroni post-hoc. The Shapiro–Wilk test was used to address the normality of demographic characteristics. For those not following a normal distribution, the nonparametric Kruskal–Wallis test was used.

[1] = SLC22A1*3 (rs12208357) *1/*1, n=104
[2] = SLC22A1*3 (rs12208357) *1/*3, n=8
[3] = SLC22A1*5 (rs34059508) *1/*1, n=113
[4] = SLC22A1*5 (rs34059508) *1/*5, n=5
[5] = Total with CYP1A2 diplotype, n=115
[6] = the single volunteer with the ADR headache

Which tmax (CYP2C19 µM, n=3) does the source give for `C#CCN[C@@H]1CCc2ccccc21` [rasagiline, Rasagiline] here?
Its tmax is 0.61 ± 0.35 h.

And the “AUC0-∞/DW” value (CYP2C19 IM, n=36)?
The value was 258.70 ± 75.90 ng·kg·h/mL/mg.

What about the Cmax/DW (CYP2C19 IM, n=36) of the same compound?
The Cmax/DW was 415.50 ± 185.56 ng·kg/mL/mg.

What about the t1/2 (CYP2C19 IM, n=36) of the same compound?
The t1/2 was 2.85 ± 0.84 h.

And the tmax (CYP2C19 IM, n=36)?
The tmax was 0.46 ± 0.22 h.

And the “AUC0-∞/DW” value (CYP2C19 NM, n=56)?
Its value is 267.83 ± 70.38 ng·kg·h/mL/mg.

What about the Cmax/DW (CYP2C19 NM, n=56) of the same compound?
Its Cmax/DW is 402.65 ± 142.62 ng·kg/mL/mg.

And the t1/2 (CYP2C19 NM, n=56)?
The t1/2 was 2.67 ± 0.91 h.

And the tmax (CYP2C19 NM, n=56)?
Its tmax is 0.53 ± 0.27 h.

And the “AUC0-∞/DW” value (CYP2C19 PM, n=2)?
The value was 302.71 ± 14.98 ng·kg·h/mL/mg.

What about the Cmax/DW (CYP2C19 PM, n=2) of the same compound?
The Cmax/DW was 412.92 ± 55.36 ng·kg/mL/mg.

And the t1/2 (CYP2C19 PM, n=2)?
Its t1/2 is 1.55 ± 0.41 h.

What about the tmax (CYP2C19 PM, n=2) of the same compound?
Its tmax is 0.75 ± 0.11 h.

And the “AUC0-∞/DW” value (CYP2C19 RM, n=21)?
The value was 274.03 ± 86.22 ng·kg·h/mL/mg.

What about the Cmax/DW (CYP2C19 RM, n=21) of the same compound?
The Cmax/DW was 426.69 ± 180.45 ng·kg/mL/mg.

And the t1/2 (CYP2C19 RM, n=21)?
The t1/2 was 2.66 ± 0.85 h.

And the tmax (CYP2C19 RM, n=21)?
The tmax was 0.41 ± 0.11 h.

And the “AUC0-∞/DW” value (Caucasian, n=83)?
Its value is 258.45 ± 71.81 ng·kg·h/mL/mg.

What about the Cmax/DW (Caucasian, n=83) of the same compound?
The Cmax/DW was 418.18 ± 169.33 ng·kg/mL/mg.

What about the t1/2 (Caucasian, n=83) of the same compound?
Its t1/2 is 2.56 ± 0.84 h.

And the tmax (Caucasian, n=83)?
The tmax was 0.47 ± 0.19 h.

And the “AUC0-∞/DW” value (Men, n=53)?
The value was 278.61 ± 73.51 ng·kg·h/mL/mg.

And the Cmax/DW (Men, n=53)?
Its Cmax/DW is 447.91 ± 163.88 ng·kg/mL/mg.

What about the t1/2 (Men, n=53) of the same compound?
The t1/2 was 2.31 ± 0.85 *^& h.

And the tmax (Men, n=53)?
The tmax was 0.52 ± 0.28 h.

And the “AUC0-∞/DW” value (Mixed ethnicity, n=35)?
The value was 281.05 ± 80.09 ng·kg·h/mL/mg.

And the Cmax/DW (Mixed ethnicity, n=35)?
The Cmax/DW was 389.35 ± 147.25 ng·kg/mL/mg.

What about the t1/2 (Mixed ethnicity, n=35) of the same compound?
The t1/2 was 2.95 ± 0.94 h.

What about the tmax (Mixed ethnicity, n=35) of the same compound?
The tmax was 0.55 ± 0.31 h.

And the “AUC0-∞/DW” value (NAT2 RA, n=9)?
Its value is 230.53 ± 67.28 ng·kg·h/mL/mg.

What about the Cmax/DW (NAT2 RA, n=9) of the same compound?
Its Cmax/DW is 315.46 ± 178.72 ng·kg/mL/mg.

And the t1/2 (NAT2 RA, n=9)?
The t1/2 was 2.72 ± 0.68 h.

And the tmax (NAT2 RA, n=9)?
The tmax was 0.50 ± 0.24 h.

And the “AUC0-∞/DW” value (NAT2 SA, n=103)?
Its value is 266.53 ± 75.05 ng·kg·h/mL/mg.

And the Cmax/DW (NAT2 SA, n=103)?
Its Cmax/DW is 420.47 ± 161.94 (pu = 0.018, pm = 0.018) ng*kg/mL*mg.

What about the t1/2 (NAT2 SA, n=103) of the same compound?
The t1/2 was 2.62 ± 0.83 h.

And the tmax (NAT2 SA, n=103)?
Its tmax is 0.49 ± 0.24 h.

What about the “AUC0-∞/DW” value [1] of the same compound?
Its value is 265.80 ± 73.86 ng·kg·h/mL/mg.

What about the Cmax/DW [1] of the same compound?
The Cmax/DW was 401.10 ± 159.35 ng·kg/mL/mg.

What about the t1/2 [1] of the same compound?
The t1/2 was 2.71 ± 0.89 h.

And the tmax [1]?
Its tmax is 0.51 ± 0.24 h.

And the “AUC0-∞/DW” value [2]?
Its value is 258.87 ± 34.73 ng·kg·h/mL/mg.

And the Cmax/DW [2]?
The Cmax/DW was 473.14 ± 99.07 ng·kg/mL/mg.

And the t1/2 [2]?
The t1/2 was 2.22 ± 0.81 h.

What about the tmax [2] of the same compound?
The tmax was 0.35 ± 0.11 (pu = 0.038 pm = 0.032) h.

And the “AUC0-∞/DW” value [3]?
Its value is 267.52 ± 75.21 ng·kg·h/mL/mg.

What about the Cmax/DW [3] of the same compound?
Its Cmax/DW is 415.96 ± 161.85 ng·kg/mL/mg.

And the t1/2 [3]?
Its t1/2 is 2.70 ± 0.89 h.

And the tmax [3]?
The tmax was 0.49 ± 0.23 h.

What about the “AUC0-∞/DW” value [4] of the same compound?
Its value is 211.83 ± 36.15 ng·kg·h/mL/mg.

What about the Cmax/DW [4] of the same compound?
Its Cmax/DW is 266.58 ± 130.60 (pu = 0.022, pm = 0.003) ng*kg/mL*mg.

What about the t1/2 [4] of the same compound?
The t1/2 was 2.24 ± 0.71 h.

And the tmax [4]?
The tmax was 0.67 ± 0.24 (pu = 0.018) h.

And the “AUC0-∞/DW” value [5]?
The value was 265.29 ± 75.63 ng·kg·h/mL/mg.

What about the Cmax/DW [5] of the same compound?
Its Cmax/DW is 411.77 ± 164.35 ng·kg/mL/mg.

What about the t1/2 [5] of the same compound?
The t1/2 was 2.66 ± 0.89 h.

What about the tmax [5] of the same compound?
Its tmax is 0.49 ± 0.24 h.

And the “AUC0-∞/DW” value (Total, n=118)?
The value was 265.16 ± 74.74 ng·kg·h/mL/mg.

What about the Cmax/DW (Total, n=118) of the same compound?
The Cmax/DW was 409.63 ± 163.00 ng·kg/mL/mg and 409.63 ± 163.01 ng·kg/mL/mg.

And the t1/2 (Total, n=118)?
Its t1/2 is 2.68 ± 0.89 h.

What about the tmax (Total, n=118) of the same compound?
The tmax was 0.49 ± 0.24 h.

What about the “AUC0-∞/DW” value (UGT1A6 rs7592281 G/G, n=111) of the same compound?
Its value is 264.10 ± 73.64 ng·kg·h/mL/mg.

What about the Cmax/DW (UGT1A6 rs7592281 G/G, n=111) of the same compound?
Its Cmax/DW is 409.07 ± 159.30 ng·kg/mL/mg.

What about the t1/2 (UGT1A6 rs7592281 G/G, n=111) of the same compound?
Its t1/2 is 2.66 ± 0.89 h.

What about the tmax (UGT1A6 rs7592281 G/G, n=111) of the same compound?
The tmax was 0.48 ± 0.22 h.

And the “AUC0-∞/DW” value (UGT1A6 rs7592281 G/T, n=7)?
Its value is 281.88 ± 95.76 ng·kg·h/mL/mg.

And the Cmax/DW (UGT1A6 rs7592281 G/T, n=7)?
The Cmax/DW was 418.57 ± 229.87 ng·kg/mL/mg.

And the t1/2 (UGT1A6 rs7592281 G/T, n=7)?
The t1/2 was 3.03 ± 0.72 h.

What about the tmax (UGT1A6 rs7592281 G/T, n=7) of the same compound?
Its tmax is 0.70 ± 0.32 (pu = 0.021, pm = 0.029) h.

What about the “AUC0-∞/DW” value (Women, n=65) of the same compound?
Its value is 254.19 ± 74.50 ng·kg·h/mL/mg.

What about the Cmax/DW (Women, n=65) of the same compound?
The Cmax/DW was 378.42 ± 156.70 ng·kg/mL/mg.

What about the t1/2 (Women, n=65) of the same compound?
The t1/2 was 2.98 ± 0.80 h.

What about the tmax (Women, n=65) of the same compound?
Its tmax is 0.48 ± 0.19 h.

What about the “AUC0-∞” value (men) of the same compound?
The value was 3.71 ± 0.88 ng·h/mL.

What about the “AUC0-∞/DW” value [6] of the same compound?
Its value is 197.49 ng·kg·h/mL/mg.

And the Cmax/DW [6]?
The Cmax/DW was 339.71 ng·kg/mL/mg.

And the “AUC0-∞” value (women)?
Its value is 4.29 ± 1.41 ng·h/mL.
